Assays:
[1] = test system: SK-MEL-5; assay: Cytotoxicity against human SK-MEL-5 cells; type: functional
[2] = test system: COLO 205; assay: Cytotoxicity against human COLO205 cells; type: functional
[3] = read-out: LC50 (the source's name)

## CCCCCCCCCCCCCC(=O)O[C@@H](c1cnco1)c1nc([C@@H](O)C[C@@H](O)[C@@H](O)[C@@H](C)O)co1 [BENGAZOLE A]
[1]
  GI50: 1.13 µM
  TGI: 4.83 µM
[1]; [3]
  CC50: 4.83 µM
[2]
  GI50: 0.181 µM
  TGI: 1.5 µM
[2]; [3]
  CC50: 5.25 µM
